{
  "source": "patent US20130195925A1",
  "about": "“ANTI AGING APPLICATION AND METHOD FOR TREATING AGING” (VASKIN, LLC, priority 2011, published 2013)",
  "origin": "cited, not measured here",
  "key": {"[1]": {"tested_on": "co-culture model of melanocytes and keratinocytes", "settings": "fluorochrome transfer, flow cytometry"}, "wounds": {"tested_on": "wounds", "settings": "solution containing 5%"}, "[2]": {"tested_on": "UVB-induced pigmented skins of brownish guinea pigs", "settings": "0.5% Glabridin solution applied topically; backs of brownish guinea pigs"}, "[3]": {"settings": "in vivo"}, "[4]": {"settings": "in vivo", "remark": "listed apart in the source"}, "stem cell factor": {"tested_on": "stem cell factor", "settings": "human keratinocyte cell culture"}, "[5]": {"settings": "thought to be; compared with vitamin E"}},
  "data": [
    {"molecule": "NC(=O)c1cccnc1", "note": "[Niacinamide]", "values": [
      {"measurement": "downregulation of the amount of melanosomes transferred", "setting": "[1]", "result": "35%-68%"}
    ]},
    {"molecule": "CC(=O)Oc1c(C)c(C)c2c(c1C)CCC(C)(CCC[C@H](C)CCC[C@H](C)CCCC(C)C)O2", "note": "(some centres unmarked) [Vitamin E acetate, Tocopheryl acetate]", "values": [
      {"measurement": "wound healing time", "setting": "wounds", "result": "decreased the healing time required"}
    ]},
    {"molecule": "CC1(C)C=Cc2c(ccc3c2OC[C@@H](c2ccc(O)cc2O)C3)O1", "note": "[Glabridin]", "values": [
      {"measurement": "pigmentation induced by UVB radiation", "setting": "[2]", "result": "significantly reduced pigmentation"}
    ]},
    {"molecule": "O=c1cc(CO)occ1O", "note": "[kojic acid]", "values": [
      {"measurement": "carcinogenic properties", "setting": "[3]", "result": "may have some carcinogenic properties"},
      {"measurement": "dermatitis", "setting": "[4]", "result": "can lead to dermatitis in some people"}
    ]},
    {"molecule": "C=CCCCCCCCCC(=O)N[C@@H](Cc1ccccc1)C(=O)O", "note": "[Undecylenoyl phenylalanine]", "values": [
      {"measurement": "gene expression and protein release of stem cell factor", "setting": "stem cell factor", "result": "suppresses"}
    ]},
    {"molecule": "COc1cc(CCC(=O)CC(=O)CCc2ccc(O)c(OC)c2)ccc1O", "note": "[Tetrahydrocurcumin]", "values": [
      {"measurement": "safety for topical use", "result": "no irritant or sensitization side effects"}
    ]},
    {"molecule": "O=C(O[C@@H]1Cc2c(O)cc(O)cc2O[C@@H]1c1cc(O)c(O)c(O)c1)c1cc(O)c(O)c(O)c1", "note": "[EGCG, Epigallocatechin galate]", "values": [
      {"measurement": "power for neutralizing free radicals relative to vitamin E", "setting": "[5]", "result": 200, "unit": "times"}
    ]}
  ]
}
